Results from US20200131144A1, “AMINE OR (THIO)AMIDE CONTAINING LXR MODULATORS” (Phenex-FXR GmbH, priority 2017, published 2020).
Read-outs that look alike come from different tables or passages of the source.

Assays:
[1] = Short term HFD mouse model: liver and plasma exposure after multiple oral dosing; type: in vivo, mice (C57BL/6J); details: C57BL/6J, HFD mice, 4 h after final dose; for Kp at 4 h: liver/plasma, read-out: liver/plasma ratio, 4 h
From the text: Short Term HFD Mouse Model:
For this, C57BL/6J were purchased from Elevage Janvier (Rennes, France) at the age of 8 weeks. After an acclimation period of two weeks, animals were prefed on a high fat diet (HFD) (Ssniff Spezialdiäten GmbH, Germany, Surwit EF D12330 mod, Cat. No. E15771-34), with 60 kcal % from fat plus 1% (w/w) extra cholesterol (Sigma-Aldrich, St. Louis, Mo.) for 5 days. Animals were maintained on this diet during treatment with LXR modulators. The test compounds were formulated in 0.5% hydroxypropylmethylcellulose (HPMC) and administered in three doses (from 1.5 to 20 mg/kg each) by oral gavage according to the following schedule: on day one, animals received treatment in the morning and the evening (ca. 17:00), on day two animals received the final treatment in the morning after a 4 h fast and were sacrificed 4 h thereafter. Animal work was conducted according to the national guidelines for animal care in Germany.
Multiple oral dosing of compounds from the present invention in mice lead to a high liver exposure with a favourable liver to plasma ratio. […] These genes are related to hepatic de-novo lipogenesis. A suppression of these genes will reduce liver fat (liver triglycerides).

[2] = Pharmacokinetics in mice after single oral dosing, blood and liver exposure by LC-MS; type: in vivo, mice (C57/bl6/J); details: single oral dose 20 mg/kg
Outline: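 Male C57BL/6J mice fasted ≥12 h, given a single oral dose of 20 mg/kg (n=3 per group). Sacrifice at 4, 12 or 24 h post-dose; liver and blood levels quantified by LC-MS.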

[3] = molecular target: T1, GST-LXRβ ligand-binding domain (Homo sapiens, UniProt P55055, INS174Q); experiment: TR-FRETβ activity assay (NCoA3 coactivator peptide recruitment); type: biochemical; details: 1 μM 24(S)-25-epoxycholesterol as prestimulating agonist; inverse agonist unless *
T1 construct: amino acids 156-461; NP009052; made in house; host or cells: E. coli
T1 sequence (P55055 with tags, fused parts or gaps INS174Q limits assumed): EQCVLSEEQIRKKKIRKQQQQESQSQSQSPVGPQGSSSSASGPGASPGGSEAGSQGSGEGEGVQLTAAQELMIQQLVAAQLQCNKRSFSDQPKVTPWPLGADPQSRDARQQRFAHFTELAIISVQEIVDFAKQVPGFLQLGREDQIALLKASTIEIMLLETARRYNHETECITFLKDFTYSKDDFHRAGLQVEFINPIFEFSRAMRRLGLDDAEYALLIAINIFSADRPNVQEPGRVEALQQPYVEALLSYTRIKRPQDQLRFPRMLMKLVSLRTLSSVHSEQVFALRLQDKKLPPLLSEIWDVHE
Outline: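 E. coli-expressed GST-LXRβ LBD (aa 156-461, 76 nM) with biotinylated NCoA3 peptide (400 nM), anti-GST-Tb cryptate donor and streptavidin-XL665 acceptor in 240 mM KCl, BSA, 0.002% Triton X-100. Equilibrated 1 h at 4° C; TR-FRET read at 615/665 nm, triplicates.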

- concentration at 4 h ([1]; liver, three oral doses of 5 mg/kg each, read-out: liver exposure, 4 h): 2.6 µM
- concentration at 4 h ([1]; liver, three oral doses of 20 mg/kg each, read-out: liver exposure, 4 h): 8.93 µM
- Kp at 4 h ([1]; three oral doses of 5 mg/kg each): 2.9
- Kp at 4 h ([1]; three oral doses of 20 mg/kg each): 2.5
- concentration at 4 h ([1]; plasma, three oral doses of 5 mg/kg each, read-out: plasma exposure, 4 h): 0.893 µM
- concentration at 4 h ([1]; plasma, three oral doses of 20 mg/kg each, read-out: plasma exposure, 4 h): 3.52 µM
- Kp at 4 h ([2]; male, C57/bl6/J, mouse, liver/blood, time point 4 h, read-out: liver/blood ratio): 11
- Kp at 12 h ([2]; male, C57/bl6/J, mouse, liver/blood, time point 12 h, read-out: liver/blood ratio): 5.7
- Kp at 24 h ([2]; male, C57/bl6/J, mouse, liver/blood, time point 24 h, read-out: liver/blood ratio): 2.9
- blood/plasma exposure ([2]; time point 4 h): 0.96 µM
- liver exposure ([2]; time point 4 h): 10.3 µM
- blood/plasma exposure ([2]; time point 12 h): 0.21 µM
- liver exposure ([2]; time point 12 h): 1.2 µM
- blood/plasma exposure ([2]; time point 24 h): 0.04 µM
- liver exposure ([2]; time point 24 h): 0.13 µM
- EC50 [3]: < 100 nM
Compound: Cc1ccc2ccccc2c1CN(Cc1ccc(-c2cccc(C(C)(C)C(=O)O)c2)cc1)Cc1ccc(C(F)(F)F)o1 [Example 24, 2-Methyl-2-(4′-((((2-methylnaphthalen-1-yl)methyl)((5-(trifluoromethyl)furan-2-yl)methyl)amino)methyl)-[1,1′-biphenyl]-3-yl)propanoic acid]
